Reference: ChEMBL document CHEMBL1949614, “Advent of Imidazo[1,2-a]pyridine-3-carboxamides with Potent Multi- and Extended Drug Resistant Antituberculosis Activity” (ACS Med Chem Lett, 2011)
≈ marks a conversion by molar mass, not a printed value.

Experiments:
Assay in all cases: microbe, parasite or virus in culture
[1] = system: Mycobacterium tuberculosis
[2] = system: Mycobacterium tuberculosis; conditions: variant bovis BCG
[3] = system: Mycobacterium tuberculosis; remark: listed apart in the source
[4] = system: Mycobacterium tuberculosis; remark: listed apart in the source
[5] = system: Mycobacterium tuberculosis; remark: listed apart in the source

**Q.** What does the source list for `Cc1ccn2c(C(=O)NCc3ccccc3)c(C)nc2c1`?
**A.** MIC90 [1]: 1.02 µM (≈ 0.285 µg/mL); MIC90 [2]: 0.33 µM (≈ 0.0922 µg/mL); MIC90 [3]: 0.28 µM (≈ 0.0782 µg/mL); MIC90 [4]: 1.07 µM (≈ 0.299 µg/mL)

**Q.** What does the source list for `COc1cccc(CNC(=O)c2c(C)nc3ncc(C)cn23)c1`?
**A.** MIC90 [1]: 5.84 µM (≈ 1.81 µg/mL); MIC90 [5]: 5.84 µM (≈ 1.81 µg/mL); MIC90 [2]: 2.78 µM (≈ 0.863 µg/mL); MIC90 [3]: 1.49 µM (≈ 0.462 µg/mL); MIC90 [4]: 1.02 µM (≈ 0.317 µg/mL)

**Q.** For `NNC(=O)c1ccncc1` [ISONIAZID], which MIC90 [5] is on record?
**A.** > 8 µM

**Q.** `CO[C@H]1/C=C/O[C@@]2(C)Oc3c(C)c(O)c4c(O)c(c(/C=N/N5CCN(C)CC5)c(O)c4c3C2=O)NC(=O)/C(C)=C\C=C\[C@H](C)[C@H](O)[C@@H](C)[C@@H](O)[C@@H](C)[C@H](OC(C)=O)[C@@H]1C` [RIFAMPIN] was tested. Which MIC90 [2] did it give?
**A.** < 0.78 µM

**Q.** What about the MIC90 [3] of the same compound?
**A.** > 1 µM
